Assay: Acetal cleavage in simulated gastric fluid (SGF)
Format: physicochemical
Details: 35-37° C., EtOAc extract analyzed by thin layer chromatography
Procedure: Acetal cleavage in simulated gastric fluid (SGF): propane-1,2,3-triyl tris(2-(2,4-dimethyl-1,3-dioxan-2-yl)acetate) (1 g, 2 mmol, 1 eq) was mixed with simulated gastric fluid (SGF) (5 g, 5 rel. eq.) at 35-37° C. After 30 min, 1 h and 2 h the mixture was sampled and extracted with EtOAc.

- hydrolysis to 1,3-butanediol and propane-1,2,3-triyl tris(3-oxobutanoate) (after 30 min): a majority of the product had hydrolyzed
- hydrolysis to 1,3-butanediol and propane-1,2,3-triyl tris(3-oxobutanoate) (after 1 h): hydrolyzation was complete
SMILES: CC1CCOC(C)(CC(=O)OCC(COC(=O)CC2(C)OCCC(C)O2)OC(=O)CC2(C)OCCC(C)O2)O1 (centres unmarked) [propane-1,2,3-triyl tris(2-(2,4-dimethyl-1,3-dioxan-2-yl)acetate)]

From patent US20250002446A1, “Acetoacetate Based Ketals” (ARXADA AG, priority 2021, published 2025)
